We go through 25 molecules from patent publication US8859543B2, “Imidazo[1,2-a]pyrazine derivatives and their use for the prevention or treatment of neurological, psychiatric and metabolic disorders and diseases” (Janssen Pharmaceutica NV, priority 2010, dated 2014).

In the experiment the target is T1, Rat recombinant PDE10A (rPDE10A2) (Rattus norvegicus, UniProt Q9QYJ6).
T1 construct: made in house; host or cells: Sf9 insect cells, baculovirus
T1 sequence (Q9QYJ6 1-794): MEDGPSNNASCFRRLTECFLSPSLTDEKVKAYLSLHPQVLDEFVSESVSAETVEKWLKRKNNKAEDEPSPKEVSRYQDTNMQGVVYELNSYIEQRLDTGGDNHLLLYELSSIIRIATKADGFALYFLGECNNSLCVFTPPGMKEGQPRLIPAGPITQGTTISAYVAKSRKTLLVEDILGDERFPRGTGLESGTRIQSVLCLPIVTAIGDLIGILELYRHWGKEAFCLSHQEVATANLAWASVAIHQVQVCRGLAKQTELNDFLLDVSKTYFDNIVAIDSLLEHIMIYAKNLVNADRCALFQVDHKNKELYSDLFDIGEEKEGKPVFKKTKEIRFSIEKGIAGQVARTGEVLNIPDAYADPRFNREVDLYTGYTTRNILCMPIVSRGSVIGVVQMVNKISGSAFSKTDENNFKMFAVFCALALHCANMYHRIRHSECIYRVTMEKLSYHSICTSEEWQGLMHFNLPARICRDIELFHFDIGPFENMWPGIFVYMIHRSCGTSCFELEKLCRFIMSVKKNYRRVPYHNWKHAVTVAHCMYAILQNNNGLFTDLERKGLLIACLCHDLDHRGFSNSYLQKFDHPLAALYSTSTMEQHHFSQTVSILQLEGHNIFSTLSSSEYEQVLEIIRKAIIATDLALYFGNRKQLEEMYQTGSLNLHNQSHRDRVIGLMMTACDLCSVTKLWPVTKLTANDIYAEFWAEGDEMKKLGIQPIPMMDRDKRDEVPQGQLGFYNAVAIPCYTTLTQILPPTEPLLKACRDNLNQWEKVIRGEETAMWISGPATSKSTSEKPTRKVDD
Briefly: In vitro assay PDE10A (SPA, 3H-cAMP). The class given is biochemical. Particulars: pIC50 corresponds to the -log IC50 expressed in mol/L; read-out: PDE10A2 pIC50 (converted). How it is done: Rat recombinant PDE10A (rPDE10A2) was expressed in Sf9 cells using a recombinant rPDE10A baculovirus construct. Cells were harvested after 48 h of infection and the rPDE10A protein was purified by metal chelate chromatography on Ni-sepharose 6FF. Tested compounds were dissolved and diluted in 100% DMSO to a concentration 100 fold of the final concentration in the assay. Compound dilutions (0.4 μl) were added in 384 well plates to 20 μl of incubation buffer (50 mM Tris pH 7.8, 8.3 mM MgCl2, 1.7 mM EGTA). 10 μl of rPDE10A enzyme in incubation buffer was added and the reaction was started by addition of 10 μl substrate to a final concentration of 60 nM cAMP and 0.008 μCi ^3H-cAMP. The reaction was incubated for 60 min. at RT. […] After sedimentation of the beads during 30 min. the radioactivity was measured in a Perkin Elmer Topcount scintillation counter and results were expressed as cpm. For blank values the enzyme was omitted from the reaction and replaced by incubation buffer. Control values were obtained by addition of a final concentration of 1% DMSO instead of compound. The same assay principle is applied for the measurement of the affinity of the compound for other members of the PDE family with appropriate modifications in incubation buffer, substrate concentration, incubation time and stop solution.
On to `Cc1nc2c(N3CCOCC3)nccn2c1-c1cnc(N2CCOCC2)nc1` [compound 85], for which the IC50 was 120 nM.
In the case of `COc1ncc(-c2c(C)nc3c(N4CCOCC4)nccn23)cn1` [compound 32, 3-(2-Methoxy-pyrimidin-5-yl)-2-methyl-8-morpholin-4-yl-imidazo[1,2-a]pyrazine], the IC50 is 479 nM.
As for `CCOCCn1cc(-c2c(C)nc3c(N4CCOCC4)nccn23)cn1` [compound 93], the IC50 is 135 nM.
The value for `COC(Cn1cc(-c2c(C)nc3c(N4CCOCC4)nccn23)cn1)C(C)C` (single isomer, unassigned) [compound 54] was 56.2 nM.
For `Cc1nc2c(N3CCOCC3)nccn2c1-c1cnn(CCOC(C)C)c1` [compound 127], the IC50 is 457 nM.
The value for `COCCn1cc(-c2c(OC)nc3c(N4CCOCC4)nccn23)cn1` [compound 137] was 631 nM; that for `Cc1nc2c(N3CCOCC3)nccn2c1-c1cnn(C2CCOC2)c1` (single isomer, unassigned) [compound 88] was 132 nM.
The value for `COCCn1cc(-c2c(OC)nc3c(N4CCCC4)nccn23)cn1` [compound 131] was 537 nM; that for `COCCOc1ccc(-c2c(C)nc3c(-c4ccncc4)nccn23)cn1` [compound 132] was 537 nM.
Take `Cc1nc2c(-c3ccncc3)nccn2c1-c1cnn(CCN2CCOCC2)c1` [compound 126]: the IC50 is 457 nM.
As for `Cc1nc2c(-c3ccncc3)nccn2c1-c1cnn(CC2CCCCO2)c1` (single isomer, unassigned) [compound 80], the IC50 is 112 nM.
The value for `COC(Cn1cc(-c2c(C)nc3c(N4CCOCC4)nccn23)cn1)C(C)C` (single isomer, unassigned) [compound 59] was 74.1 nM.
As for `COCCn1cc(-c2c(C)nc3c(N4CCOCC4)nc(CCC(F)(F)F)cn23)cn1` [compound 39, 3-[1-(2-Methoxy-ethyl)-1H-pyrazol-4-yl]-2-methyl-8-morpholin-4-yl-6-(3,3,3-trifluoro-propyl)-imidazo[1,2-a]pyrazine], the IC50 is 933 nM.
The value for `CCc1ccc(-c2c(C3CC3)nc3c(N4CCOCC4)nccn23)cn1` [compound 66] was 85.1 nM; that for `Cc1nc2c(N3CCOCC3)nccn2c1-c1ccc(-c2ccc(F)cc2)nc1` [compound 139] was 776 nM.
The value for `Cc1nc2c(N3CCOCC3)nccn2c1-c1cnn(CC2CC2(F)F)c1` (single isomer, unassigned) [compound 64] was 83.2 nM; that for `Cc1nc2c(N3CCOCC3)nccn2c1-c1cnn(C2CCOC2)c1` (single isomer, unassigned) [compound 109] was 178 nM; that for `Cc1nc2c(N3CCOCC3)nccn2c1-c1cnn(CC2CCCCO2)c1` (stereo not shown) [compound 73] was 95.5 nM.
Regarding `COC(C)(C)Cc1ccc(-c2c(C3CC3)nc3c(N4CCOCC4)nccn23)cn1` [compound 60], the IC50 is 75.9 nM.
For `COC[C@H](C)n1cc(-c2c(C)nc3c(N4CCOCC4)nccn23)cn1` [compound 75], the IC50 was 100 nM.
The value for `Cc1nc2c(N3CCOCC3)nccn2c1-c1cnn(CC2CC2(F)F)c1` (single isomer, unassigned) [compound 47] was 28.2 nM.
As for `Cc1nc2c(N3CCOCC3)nccn2c1-c1cc[nH]c1` [compound 43, 2-Methyl-8-morpholin-4-yl-3-(1H-pyrrol-3-yl)-imidazo[1,2-a]pyrazine], the IC50 is 871 nM.
The value for `Cc1nc2c(-c3ccncc3)nccn2c1-c1ccc(OCC(F)(F)F)nc1` [compound 129] was 501 nM; that for `Cc1cc(-c2c(C)nc3c(N4CCOCC4)nccn23)ccn1` [compound 133] was 550 nM.
For the molecule `COC(C)(C)COc1ccc(-c2c(C)nc3c(-c4ccncc4)nccn23)cn1` [compound 2, 3-[6-(2-Methoxy-2-methyl-propoxy)-pyridin-3-yl]-2-methyl-8-pyridin-4-yl-imidazo[1,2-a]pyrazine], the IC50 is 708 nM.
